“And” between values parts separate entries of the source, which are not always exact repeats. Identical values can stand only once.
How the values were obtained:
participants with PPF = test: Phase 2 study, PPF cohort: efficacy (ppFVC, FVC); type: in vivo, human; settings: for Difference (S.E.) in rate of decline in FVC (% Predicted), 30 mg - placebo: 30 mg BID
Experimental: A total of 123 participants with PPF were randomized. Participants (age ≥21 years) were randomized (1:1:1) to receive 30 mg or 60 mg Compound A or PBO twice daily for 26 weeks. […] Immunosuppressive medications (mycophenolate mofetil, mycophenolic acid, azathioprine and/or tacrolimus) were permitted only if dosing is stable for ≥6 months prior to screening. If receiving antifibrotic agents pirfenidone or nintedanib, patients had to receive a stable dosage for ≥3 months prior to screening and during the screening period; if not receiving pirfenidone or nintedanib, patients had to be naive to both drugs or not have received either 4 weeks prior to Day 1. A total of 47 (38.2%) subjects were receiving antifibrotic treatment (with or without immunosuppression therapy). Of those subjects, 34 were being treated with nintedanib and 13 with pirfenidone. Participants were stratified by usual interstitial pneumonia (UIP) pattern (presence versus absence) and background therapy (antifibrotics+/−ILD-targeted immunosuppression versus ILD-targeted immunosuppression alone versus none). UIP pattern was present in 52% of subjects and unclassifiable ILD was the most common disease categorization.
The study was not powered to detect statistical significance (no formal testing). No target effect size was defined in the study design. There were two estimand approaches for analysis: • Treatment Policy: Effect of treatment with dose reduction as part of treatment regimen.
While-On Treatment: Effect of treatment without dose reduction.
The main efficacy endpoint, rate of FVC decline (in % of predicted) from baseline to wk-26 in the PPF cohort, was estimated using a linear mixed-effects model utilizing all FVC timepoints. It was analyzed under a primary estimand (utilizing all data, treatment policy strategy), and under supplementary estimand (utilizing all data up to the point of dose reduction, while-on-treatment strategy). Analysis was performed in the overall population as well as in sub-groups by 1) background anti-fibrotic treatment or not 2) UIP radiographic pattern (presence or not). The mean baseline ppFVC was 66.7% for the PPF cohort.

participants with IPF = test: Phase 2 study, IPF cohort: efficacy (ppFVC, FVC); type: in vivo, human; settings: for Efficacy versus PBO (ppFVC, FVC): Week 26, overall population with and without SoC; for Relative reduction in rate of decline in ppFVC vs PBO: Week 26, overall; for Slope difference in rate of decline in FVC, 60 mg - PBO: adjusted for age, gender, height
Experimental: A total of 278 participants with IPF were randomized and 276 participants were treated as of the final analyses data cut-off (4 Aug. 2022). Male and female participants […] with IPF and percent predicted forced vital capacity (ppFVC) […] and percent predicted DLCO (ppDLCO)≥25%; diagnosed within 7 years of screening; having a centrally-read chest HRCT obtained at screening that was consistent with UIP or probable UIP, or having a lung biopsy consistent with UIP, were eligible to enter the study. The mean baseline ppFVC for all subjects was 76.5%. In the primary IPF cohort, participants were randomized (1:1:1) to receive 30 mg or 60 mg Compound A or placebo (PBO) twice daily for 26 weeks. Participants were stratified by standard of care (SoC) IPF therapy (pirfenidone versus nintedanib versus none) and region (Japan versus Rest of World) at randomization.
The primary objective of the study was to determine the rate of change in ppFVC from baseline to Week 26. The primary objective was evaluated with a two estimand framework to handle the intercurrent event of dose reduction to 10 mg BID or matching PBO when pre-specified low BP criteria is met. The primary estimand is adopted to estimate treatment effect when dose reduction is implemented. The supplementary estimand is adopted to estimate the effect of treatment without dose reduction.
Analysis Strategy: The primary estimand was to evaluate the efficacy of Compound A at 30 mg or 60 mg twice daily, compared to PBO in IPF participants who met the enrollment criteria, with or without use of SoC. The rate of decline in ppFVC (%) from baseline to Week 26 was compared using the difference between each dose and PBO as a population level summary regardless of dose reduction or treatment discontinuation for any reason (treatment policy strategy).
Analysis Strategy: The supplementary estimand for the primary objective is to evaluate the efficacy of Compound A at 30 mg or 60 mg twice daily without dose reduction, compared to the PBO in IPF subjects who met the enrollment criteria, with or without use of SoC. The rate of decline in ppFVC (%) from baseline to Week 26 has been compared using the difference between each dose and PBO as a population level summary regardless of treatment discontinuation for any reason (treatment policy strategy). In the event of dose reduction, data collected after dose reduction will not be considered relevant to the treatment effect of interest and therefore, will be treated as missing (while-on-treatment strategy).

[1] = 60 mg BID, baseline to Week 26, No SoC, supplementary estimand
[2] = 60 mg BID, baseline to Week 26, overall, primary estimand
[3] = 60 mg BID, baseline to Week 26, overall, supplementary estimand

CCCN(C)C(=O)OCc1c(-c2ccc(O[C@H]3CCC[C@H](C(=O)O)C3)c(C)n2)nnn1C [Compound A, (1S,3S)-3-((2-methyl-6-(1-methyl-5-(((methyl(propyl)carbamoyl)-oxy)methyl)-1H-1,2,3-triazol-4-yl)pyridin-3-yl)oxy)cyclohexane-1-carboxylic acid]
Difference (S.E.) in rate of decline in FVC (% Predicted), 30 mg - placebo (participants with PPF; UIP absent, primary estimand (treatment policy)): 2.25 (2.13) % Predicted
Difference (S.E.) in rate of decline in FVC (% Predicted), 30 mg - placebo (participants with PPF; UIP absent, supplementary estimand (while on treatment)): 2.26 (2.28) % Predicted
Difference (S.E.) in rate of decline in FVC (% Predicted), 30 mg - placebo (participants with PPF; UIP present, primary estimand (treatment policy)): 0.88 (1.6) % Predicted
Difference (S.E.) in rate of decline in FVC (% Predicted), 30 mg - placebo (participants with PPF; UIP present, supplementary estimand (while on treatment)): 1.28 (1.61) % Predicted
Difference (S.E.) in rate of decline in FVC (% Predicted), 30 mg - placebo (participants with PPF; not receiving antifibrotic treatment, primary estimand (treatment policy)): 1.28 (1.63) % Predicted
Difference (S.E.) in rate of decline in FVC (% Predicted), 30 mg - placebo (participants with PPF; not receiving antifibrotic treatment, supplementary estimand (while on treatment)): 1.34 (1.66) % Predicted
Difference (S.E.) in rate of decline in FVC (% Predicted), 30 mg - placebo (participants with PPF; overall, primary estimand (treatment policy)): 1.57 (1.29) % Predicted
Difference (S.E.) in rate of decline in FVC (% Predicted), 30 mg - placebo (participants with PPF; overall, supplementary estimand (while on treatment)): 1.78 (1.34) % Predicted
Difference (S.E.) in rate of decline in FVC (% Predicted), 30 mg - placebo (participants with PPF; receiving antifibrotic treatment, primary estimand (treatment policy)): 1.99 (2.12) % Predicted
Difference (S.E.) in rate of decline in FVC (% Predicted), 30 mg - placebo (participants with PPF; receiving antifibrotic treatment, supplementary estimand (while on treatment)): 2.58 (2.25) % Predicted
Dose response of efficacy (ppFVC decline) (participants with PPF; 30 mg and 60 mg BID): Clear dose response
Difference (S.E.) in rate of decline in FVC (% Predicted), 60 mg - placebo (participants with PPF; 60 mg BID, UIP absent, primary estimand (treatment policy)): 3.81 (2.02) % Predicted
Difference (S.E.) in rate of decline in FVC (% Predicted), 60 mg - placebo (participants with PPF; 60 mg BID, UIP absent, supplementary estimand (while on treatment)): 3.80 % Predicted and 3.8 (2.17) % Predicted
Difference (S.E.) in rate of decline in FVC (% Predicted), 60 mg - placebo (participants with PPF; 60 mg BID, UIP present, primary estimand (treatment policy)): 2.49 (1.61) % Predicted
Difference (S.E.) in rate of decline in FVC (% Predicted), 60 mg - placebo (participants with PPF; 60 mg BID, UIP present, supplementary estimand (while on treatment)): 2.12 % Predicted and 2.12 (1.62) % Predicted
Difference (S.E.) in rate of decline in FVC (% Predicted), 60 mg - placebo (participants with PPF; 60 mg BID, not receiving antifibrotic treatment, primary estimand (treatment policy)): 2.85 (1.6) % Predicted
Difference (S.E.) in rate of decline in FVC (% Predicted), 60 mg - placebo (participants with PPF; 60 mg BID, not receiving antifibrotic treatment, supplementary estimand (while on treatment)): 2.61 % Predicted and 2.61 (1.63) % Predicted
Difference (S.E.) in rate of decline in FVC (% Predicted), 60 mg - placebo (participants with PPF; 60 mg BID, overall, primary estimand (treatment policy)): 3.2 % Predicted and 3.15 (1.27) % Predicted
Difference (S.E.) in rate of decline in FVC (% Predicted), 60 mg - placebo (participants with PPF; 60 mg BID, overall, supplementary estimand (while on treatment)): 2.9 % Predicted and 2.94 % Predicted and 2.94 (1.32) % Predicted
Difference (S.E.) in rate of decline in FVC (% Predicted), 60 mg - placebo (participants with PPF; 60 mg BID, receiving antifibrotic treatment, primary estimand (treatment policy)): 3.74 (2.1) % Predicted
Difference (S.E.) in rate of decline in FVC (% Predicted), 60 mg - placebo (participants with PPF; 60 mg BID, receiving antifibrotic treatment, supplementary estimand (while on treatment)): 3.28 % Predicted and 3.28 (2.21) % Predicted
Adjusted mean treatment difference in absolute change in FVC vs placebo (participants with PPF; 60 mg BID, week 26): 87.4 mL
Consistency of efficacy across sub-groups (participants with PPF; irrespective of background antifibrotics or of UIP pattern): Efficacy consistent in all sub-groups
Acute exacerbations of lung fibrosis, patients (participants with IPF; 30 mg BID): 3 n
Efficacy versus PBO (ppFVC, FVC) (participants with IPF; 30 mg BID): did not demonstrate efficacy compared to PBO
Rate of change in ppFVC over 26 weeks (participants with IPF; 30 mg BID, treatment policy strategy): −2.8%
Rate of change in ppFVC over 26 weeks (participants with IPF; 30 mg BID, while-on-treatment strategy): −3.2%
Acute exacerbations of lung fibrosis, patients (participants with IPF; 60 mg BID): 1 n
Relative treatment benefit in ppFVC decline vs PBO (participants with IPF; 60 mg BID, Week 26, No SoC, primary estimand): 113%
Relative treatment benefit in ppFVC decline vs PBO (participants with IPF; 60 mg BID, Week 26, No SoC, supplementary estimand): 123%
Relative treatment benefit in ppFVC decline vs PBO (participants with IPF; 60 mg BID, Week 26, on background SoC, primary estimand): 39%
Relative treatment benefit in ppFVC decline vs PBO (participants with IPF; 60 mg BID, Week 26, on background SoC, supplementary estimand): 44%
Efficacy versus PBO (ppFVC, FVC) (participants with IPF; 60 mg BID): demonstrated favorable treatment responses versus PBO
Relative reduction in rate of decline in ppFVC vs PBO (participants with IPF; 60 mg BID, primary estimand (treatment policy)): 54%
Relative reduction in rate of decline in ppFVC vs PBO (participants with IPF; 60 mg BID, supplementary estimand (while-on-treatment)): 62%
Slope difference in rate of decline in ppFVC, 60 mg - PBO (participants with IPF; 60 mg BID, baseline to Week 26, No SoC, primary estimand): 2.01±1.7% and 2.01%
Estimated rate of decline in ppFVC, slope (participants with IPF; [1]): 0.471
Slope difference in rate of decline in ppFVC, 60 mg - PBO (participants with IPF; [1]): 2.55±1.73% and 2.55%
Estimated rate of decline in ppFVC, slope (participants with IPF; 60 mg BID, baseline to Week 26, SoC, supplementary estimand): −1.772
Slope difference in rate of decline in ppFVC, 60 mg - PBO (participants with IPF; 60 mg BID, baseline to Week 26, on background SoC, primary estimand): 1.22±0.87% and 1.22%
Slope difference in rate of decline in ppFVC, 60 mg - PBO (participants with IPF; 60 mg BID, baseline to Week 26, on background SoC, supplementary estimand): 1.41±0.89% and 1.41%
Slope of decline in FVC, 60 mg arm (participants with IPF; [2]): -54.3 ± 20.76 mL
Slope difference in rate of decline in ppFVC, 60 mg - PBO (participants with IPF; 60 mg BID, baseline to Week 26, overall, primary estimand (treatment policy)): 1.45±0.81% and 1.4% and 1.45%
Slope difference in rate of decline in FVC, 60 mg - PBO (participants with IPF; [2]): 46.9 ± 29.14 mL and 46.9 mL
Estimated rate of decline in ppFVC, slope (participants with IPF; [3]): −1.1% and −1.08%
Slope of decline in FVC, 60 mg arm (participants with IPF; [3]): -47.2 ± 20.92 mL
Slope difference in rate of decline in ppFVC, 60 mg - PBO (participants with IPF; 60 mg BID, baseline to Week 26, overall, supplementary estimand (while-on-treatment)): 1.77±0.82% and 1.8% and 1.77%
Slope difference in rate of decline in FVC, 60 mg - PBO (participants with IPF; [3]): 61.4 mL
Posterior probability of a positive treatment difference vs placebo (Bayesian analysis) (participants with IPF; 60 mg BID, under both estimand strategies): > 95%
Adjusted mean treatment difference in absolute change in FVC vs placebo (participants with IPF; 60 mg BID, week 26): 45.5 mL
